How the values were obtained:
Sprague-Dawley rats = assay: In vivo method for determining the effect on heart contractility (left ventricular dp/dtmax); set-up: species or system rat; details: anesthetized male Sprague-Dawley rats, intravenous, vs solvent control
Description: B) In Vivo Method for Determining the Effect on Heart Contractility
Adult male Sprague-Dawley rats (Harlan Winkelmann, Borchen, Germany) weighing 340 to 370 g were anesthetized with pentobarbital (100 mg/kg i.p.) and ventilated with a mixture of oxygen (40%) and room air (60%) at a tidal volume of 1 ml/100 g at 60 breaths/min. Body temperature was maintained at 36.5±0.3° C. with a heating lamp and was monitored with a rectal thermo sensor. Systemic blood pressure was measured in the left carotid artery using a pressure transducer (Combitrans; B. Braun Melsungen AG, Melsungen, Germany) connected to a DC-bridge-amplifier (PLUGSYS/ADC Type 663; Harvard Apparatus GmbH, March-Hugstetten, Germany). The electrocardiogram was measured as lead II via subcutaneously placed electrodes connected to a Heart-Rate-Module (PLUGSYS/HRM Type 669; Harvard Apparatus GmbH, March-Hugstetten, Germany). A micro-tip catheter (2 French, SPR-320; Millar Instruments, Houston, Tex., USA) was placed via the right carotid artery into the left ventricle, and the left ventricular pressure (LVP) and the enddiastolic pressure (EDP) were continuously measured. Registration of the hemodynamic data was performed via an analog digital converter by a personal computer using Notocord software (HEM version 3.5). Left ventricular contractility (dp/dtmax) and relaxation (dp/dtmin) were calculated from the LVP signal. For intravenous administration of the test compounds, the left jugular vein was prepared and a PP-50 catheter was inserted. Test compounds were administered either by intravenous bolus injection or by intravenous infusion by means of an infusion pump (Unita; B. Braun Melsungen AG, Melsungen, Germany). Test compounds were dissolved in a mixture of Glycofurol (75%) and Cremophor (25%), and the solution was further diluted with distilled water (1:4). In a typical experiment, several dosages of the test compound were administered subsequently at increasing doses. Statistical significance of the data obtained with drug vs control experiments, in which solvent was administered, was evaluated with the 2-sided ANOVA test (program Everstat). Increases in left ventricular contractility (percent increase) by example compounds are given in Table 3 in comparison to control experiments in which solvent was administered.

human NCX1 = target: T1, human NCX1 (Homo sapiens, UniProt P32418); assay: Inhibition of Ca2+ efflux out of cells (NCX1 forward mode), FLIPR calcium assay; format: cell-based; details: CHO cells stably expressing human NCX1; Ca2+ efflux after Ionomycin; read-out: NCX1fw IC50 (inhibition of NCX1 in forward mode)
T1 construct: expressed in transfected cells
Description: The sodium/calcium exchanger NCX1 can transport calcium ions and sodium ions through the cell membrane. The transport is an exchange of Ca^2+ and Na^+ in two directions depending on membrane potential and ion gradients. At the first direction, named “forward mode” or “calcium export mode”, Ca^2+ is transported out of the cell and Na^+ is transported into the cell. At the other direction, named “reverse mode” or “calcium import mode”, the transport directions are vice versa. The effect of the compounds of the invention on NCX1 was determined in CHO cells stably expressing human NCX1 (gene symbol SLC8A1; cf. WO 2009/115238). The assay is based on the monitoring of intracellular Ca^2+ concentrations using a calcium-sensitive fluorescence dye which is detected by means of a FLIPR device (Fluorimetric Imaging Plate Reader, Molecular Devices).
Assay Technology—Forward Mode
The assay is based on the monitoring of intracellular Ca^2+ concentrations using the PBX Calcium Assay Kit from BD (Becton, Dickinson and Company) with calcium indicator dye 51-9000177BKa (BD, 640177). CHO cells expressing NCX1 were loaded with the dye, and after a preincubation period with the test compound, lonomycin (Calbiochem, 407950) was added. lonomycin is an ionophor for Ca^2+ ions mediating an increase of intracellular Ca^2+ ions. Consequently, intracellular Ca^2+ ions are exchanged against extracellular Na^+ ions (Ca^2+ efflux, forward mode). The decrease of intracellular Ca^2+ ions was detected by measuring the fluorescence of the calcium indicator dye at a wavelength of 520 nm by a FLIPR device.
Briefly, similarly as for the reverse mode, for the forward mode transport assay 18000 cells per well were seeded into a 96 well microplate (Corning COSTAR 3904) and incubated overnight in culture medium (cf. above). A total volume of 100 μl medium per well was used. For the preparation of the FLIPR assay, the culture medium was removed from the plates and 100 μl of assay buffer (133.8 mM NaCl (Sigma, S5886); 4.7 mM KCl (Sigma, P3911); 1.25 mM MgCl2 (Merck, 1.05833.0250); 3.5 mM CaCl2 (Merck, 1.02083.0250); 5 mM glucose (Sigma, G7021); 10 mM Hepes (Sigma, H4034); pH 7.4)) were added to each well in a washing step. Assay buffer was removed, and 100 μl of a solution of the test compound in assay buffer in different concentrations were added into the wells. Further, 100 μl of dye solution (0.09% (v/v) calcium indicator dye, 9.1% (v/v) signal enhancer (from PBX Calcium Assay Kit); in assay buffer) were added into each well. The plates were incubated in the dark at room temperature for 60 min. Meanwhile a 10 μM solution of lonomycin in assay buffer (additionally containing 0.05% fetal calf serum (cf. above); 4° C.) was prepared and stored in the wells of a 96 well microplate (96 well microplate, polypropylene, U-shape (Greiner Bio-One, 650201)). The fluorescence monitoring was performed at 60 measuring points with measurement intervals of 2 sec. After the fifth measuring point, 50 μl of the lonomycin solution were added to each well of the assay plate to give a final lonomycin concentration of 2 μM. For the determination of the IC50 values the minimal fluorescence value was subtracted from the maximal fluorescence value for the fifteenth to fifty-fifth measuring points. The calculation of the IC50 values via the percentage inhibitions of Ca^2+ efflux out of cells (forward mode) effected by the test compound was performed in Biost@t Speed 2.0. “NCX1fw IC50” in Table 2 means the IC50 value (in μM (micromol/liter)) for inhibition of NCX1 in forward mode.

IC50 (human NCX1) | SMILES | Contractility increase (left ventricular contractility) (Sprague-Dawley rats; 0.1 mg/kg) | Contractility increase (left ventricular contractility) (Sprague-Dawley rats; 0.3 mg/kg) | Contractility increase (left ventricular contractility) (Sprague-Dawley rats; 1.0 mg/kg)
1500 nM | Cc1ccccc1C1CCc2cc(O[C@H]3CC[C@H](N)CC3)ccc2O1.Cl (stereo partly drawn) [Example 156, trans-4-(2-o-Tolyl-chroman-6-yloxy)-cyclohexylamine] | 44% | 110% | 171%
2200 nM | Cc1ccccc1C1CCc2cc(OC3CCC(C(=O)NCc4ccno4)CC3)ccc2O1 (stereo not shown) [Example 158, N-(Isoxazol-5-ylmethyl)-4-(2-o-tolyl-chroman-6-yloxy)-cyclohexanecarboxamide] | 106% | 139% | 146%
2500 nM | NCC(=O)N[C@H]1CC[C@H](Oc2ccc3c(c2)CC[C@@H](c2ccccc2)O3)CC1 [Example 159, 2-Amino-N-[trans-4-((S)-2-phenyl-chroman-6-yloxy)-cyclohexyl]-acetamide] | 46% | 104% | 140%
200 nM | Cc1ccccc1C1CCc2cc(OC3CCC(NCc4c(C)nn(C)c4C)CC3)ccc2O1 (stereo not shown) [Example 177, 4-(2-o-Tolyl-chroman-6-yloxy)-N-(1,3,5-trimethylpyrazol-4-ylmethyl)-cyclohexylamine] | 29% | 81% | 134%
10000 nM | O=C(N[C@H]1CC[C@H](Oc2ccc3c(c2)CCC(c2ccccc2)O3)CC1)[C@@H]1CCCN1 (stereo partly drawn) [Example 180, (S)—N-[trans-4-(2-Phenyl-chroman-6-yloxy)-cyclohexyl]-pyrrolidine-2-carboxamide] | 26% | 66% | 99%
500 nM | Cc1ccccc1[C@@H]1CCc2cc(O[C@H]3CC[C@H](C(=O)NCCO)CC3)ccc2O1 [Example 268, trans-4-((S)-2-o-tolyl-chroman-6-yloxy)-cyclohexanecarboxylic acid (2-hydroxy-ethyl)-amide] | 108% | 154% | 179%

SMILES | IC50 (human NCX1) | Contractility increase (left ventricular contractility) (Sprague-Dawley rats; 0.1 mg/kg) | Contractility increase (left ventricular contractility) (Sprague-Dawley rats; 0.3 mg/kg) | Contractility increase (left ventricular contractility) (Sprague-Dawley rats; 1.0 mg/kg)
Cc1ccccc1[C@@H]1CCc2cc(O[C@H]3CC[C@H](C(=O)NCCOP(=O)([O-])[O-])CC3)ccc2O1.[Na+].[Na+] [Example 303, Phosphoric acid mono-(2-{[trans-4-((S)-2-o-tolyl-chroman-6-yloxy)-cyclohexanecarbonyl]-amino}-ethyl) ester disodium salt] | 2500 nM | 69% | 114% | 172%

Reference: patent US9440941B2, “Substituted chroman-6-yloxy-cycloalkanes and their use as pharmaceuticals” (SANOFI, priority 2013, dated 2016)
